Reference: ChEMBL document CHEMBL2331080, “Further characterization of a putative serine protease contributing to the γ-secretase cleavage of β-amyloid precursor protein” (Bioorg Med Chem, 2013)
Each block holds one compound with its values, some of them ahead of it. The source made the active and inactive calls. The calls are words filed in the database; no cut-off is given here.

How the values were obtained:
[1] = biological target: T1, Gamma-secretase (Homo sapiens) (UniProt Q96BI3+Q9NZ42+Q8WW43+P49768+Q92542+P49810); test: Modulation of gamma-secretase-mediated betaAPP K670N/M671L mutant cleavage in HEK293 cells assessed as inhibition of amyloid beta40/42 production at 60 uM after 8 hrs by chemiluminescence assay; type: cell-based
[2] = Half life of the compound in buffer; type: physicochemical
[3] = biological target: T1, Gamma-secretase (Homo sapiens); test: Inhibition of gamma-secretase-mediated betaAPP K670N/M671L mutant cleavage in HEK293 cells assessed as inhibition of amyloid beta40/42 production at 60 uM after 8 hrs by chemiluminescence assay relative to control; type: cell-based
[4] = biological target: T1, Gamma-secretase (Homo sapiens); test: Inhibition of gamma-secretase-mediated betaAPP K670N/M671L mutant cleavage in HEK293 cells assessed as inhibition of amyloid beta40/42 production at 10 to 30 uM after 8 hrs by chemiluminescence assay relative to control; type: cell-based
HEK293 [5] = test: Cytotoxicity against HEK293 cells overexpressing betaAPP K670N/M671L mutant at 10 to 30 uM by LDH release assay; type: cell-based; details: human, hek293, 30 µM
HEK293 [6] = test: Cytotoxicity against HEK293 cells overexpressing betaAPP K670N/M671L mutant at 60 uM by LDH release assay; type: cell-based; details: human, hek293, 60 µM
Gamma-secretase = test: Inhibition of gamma-secretase-mediated betaAPP K670N/M671L mutant cleavage in HEK293 cells assessed as inhibition of amyloid beta40/42 production after 8 hrs by chemiluminescence assay; type: cell-based, Homo sapiens
[7] = biological target: T1, Gamma-secretase (Homo sapiens); test: Inhibition of presenilin-dependent gamma secretase complex in HEK293 solubilized membranes using Flag-C100 as substrate assessed as inhibition of amyloid beta40/42 production at 60 uM after 16 hrs by Western blotting analysis; type: cell membranes
[8] = biological target: T2, Proteasome Macropain subunit MB1 (Homo sapiens, UniProt P28074); test: Inhibition of chymotrypsin-like activity of Proteasome subunit beta 5 (unknown origin) assessed as inhibition of beta-amyloid production by cell-based assay
T2 sequence (P28074 whole entry): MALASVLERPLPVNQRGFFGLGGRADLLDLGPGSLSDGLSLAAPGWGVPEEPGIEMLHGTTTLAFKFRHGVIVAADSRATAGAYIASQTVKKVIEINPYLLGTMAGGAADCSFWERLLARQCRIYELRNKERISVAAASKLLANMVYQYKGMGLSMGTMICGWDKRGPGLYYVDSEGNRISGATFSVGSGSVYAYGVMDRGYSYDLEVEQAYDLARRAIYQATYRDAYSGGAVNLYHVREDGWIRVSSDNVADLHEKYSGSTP

[9] = biological target: T1, Gamma-secretase (Homo sapiens); test: Modulation of gamma-secretase-mediated betaAPP K670N/M671L mutant cleavage in HEK293 cells assessed as inhibition of amyloid beta40/42 production at 10 to 30 uM after 8 hrs by chemiluminescence assay; type: cell-based
[10] = Half life of the compound in hepes buffer; type: physicochemical
HEK293 [11] = test: Cytotoxicity against HEK293 cells overexpressing betaAPP K670N/M671L mutant at 10 uM by LDH release assay; type: cell-based; details: human, hek293, 10 µM

inhibition [1]: Active
Structure (SMILES): COc1cc2ccc([N+](=O)[O-])cc2c(=O)o1

half-life [2]: < 0.333 h
inhibition [3]: inactive
Structure (SMILES): CCC(C)Oc1oc(=O)c2cc([N+](=O)[O-])ccc2c1Cl (centres undefined)

inhibition [3]: inactive
Structure (SMILES): COc1oc(=O)c2cc(NC(C)=O)ccc2c1Cl

inhibition [1]: Active
Structure (SMILES): COc1oc(=O)c2cc(NC(=O)C(C)(C)C)ccc2c1Cl

inhibition [4]: > 50%
inhibition [1]: Active
Structure (SMILES): CCCCCCCCCNc1ccc2c(Cl)c(OC)oc(=O)c2c1
Activity (HEK293 [5]): Non-toxic

inhibition [3]: inactive
Structure (SMILES): COCCOc1cc2ccc(N)cc2c(=O)o1

inhibition [3]: inactive
Structure (SMILES): Nc1ccc2cc(OCCBr)oc(=O)c2c1

inhibition [3]: inactive
Structure (SMILES): COc1oc(=O)c2cc(NCCCc3ccccc3)ccc2c1Cl
Activity (HEK293 [6]): Non-toxic

inhibition [4]: > 50%
IC50 (Gamma-secretase): 10 µM
inhibition [3]: > 50%
Structure (SMILES): COc1oc(=O)c2cc(NCC(C)C)ccc2c1Cl
Activity (HEK293 [5]): Non-toxic

inhibition [3]: inactive
Structure (SMILES): COc1oc(=O)c2cc(NC(=O)OC34CC5CC(CC(C5)C3)C4)ccc2c1Cl

inhibition [4]: > 50%
Structure (SMILES): COc1oc(=O)c2cc(NCCC(C)(C)C)ccc2c1Cl
Activity (HEK293 [5]): Toxic

inhibition [3]: inactive
Structure (SMILES): COc1oc(=O)c2cc(NC/C=C\c3ccccc3)ccc2c1Cl
Activity (HEK293 [6]): Non-toxic

inhibition [3]: inactive
Structure (SMILES): C=CCOC(=O)Nc1ccc2c(Cl)c(OC)oc(=O)c2c1

inhibition [7]: inactive
IC50 [8]: 0.009 µM
inhibition [3]: > 50%
Structure (SMILES): CC(C)C[C@H](NC(=O)[C@H](Cc1ccccc1)NC(=O)c1ccccc1)B(O)O

inhibition [3]: > 50%
Structure (SMILES): CCCCCCNc1ccc2c(Cl)c(OC)oc(=O)c2c1
Activity (HEK293 [6]): Non-toxic

inhibition [4]: > 50%
Structure (SMILES): COc1oc(=O)c2cc(NCC3CCCCC3)ccc2c1Cl
Activity (HEK293 [5]): Toxic

inhibition [7]: inactive
inhibition [3]: inactive
Structure (SMILES): CC(C)C[C@@H](NC(=O)[C@H](Cc1ccccc1)NC(=O)c1cnccn1)B1O[C@H]2C[C@H]3C[C@H](C3(C)C)[C@@]2(C)O1

inhibition [3]: > 50%
Structure (SMILES): COCCOc1cc2ccc([N+](=O)[O-])cc2c(=O)o1

inhibition [3]: inactive
Structure (SMILES): COc1ccc(CNc2ccc3c(Cl)c(OC)oc(=O)c3c2)cc1
Activity (HEK293 [6]): Non-toxic

inhibition [3]: inactive
Structure (SMILES): COc1oc(=O)c2cc(NC(=O)OCC3c4ccccc4-c4ccccc43)ccc2c1Cl

inhibition [3]: > 50%
Structure (SMILES): O=c1oc(OCCBr)cc2ccc([N+](=O)[O-])cc12

inhibition [4]: > 50%
inhibition [9]: inactive
Structure (SMILES): COc1oc(=O)c2cc(NCc3ccccc3[N+](=O)[O-])ccc2c1Cl
Activity (HEK293 [5]): Non-toxic

inhibition [3]: inactive
Structure (SMILES): COc1oc(=O)c2cc(NC(=O)OCc3ccccc3)ccc2c1Cl

inhibition [3]: > 50%
Structure (SMILES): COc1oc(=O)c2cc(NCCC(C)C)ccc2c1Cl
Activity (HEK293 [6]): Non-toxic

inhibition [3]: inactive
Structure (SMILES): COc1oc(=O)c2cc(Nc3cccc([N+](=O)[O-])c3)ccc2c1Cl
Activity (HEK293 [6]): Non-toxic

inhibition [3]: inactive
Structure (SMILES): COc1oc(=O)c2cc(NC(=O)OC(C)(C)C)ccc2c1Cl

inhibition [4]: > 50%
inhibition [9]: inactive
Structure (SMILES): COc1oc(=O)c2cc(NCc3ccc(OCc4ccccc4)cc3)ccc2c1Cl
Activity (HEK293 [5]): Non-toxic

inhibition [3]: inactive
Structure (SMILES): CCOC(=O)Nc1ccc2c(Cl)c(OC)oc(=O)c2c1

inhibition [7]: inactive
inhibition [3]: inactive
Structure (SMILES): CC(C)C[C@H](NC(=O)[C@H](Cc1ccccc1)NC(=O)c1cnccn1)B1O[C@H]2C[C@H]3C[C@H](C3(C)C)[C@@]2(C)O1

inhibition [7]: inactive
inhibition [3]: > 50%
Structure (SMILES): CC(C)C[C@@H](NC(=O)[C@H](Cc1ccccc1)NC(=O)c1ccccc1)B1O[C@H]2C[C@H]3C[C@H](C3(C)C)[C@@]2(C)O1

inhibition [3]: inactive
Structure (SMILES): CCCCCCCC(=O)Nc1ccc2c(Cl)c(OC)oc(=O)c2c1

Structure (SMILES): COc1oc(=O)c2cc(NCC(C)(C)C)ccc2c1Cl
Activity (HEK293 [6]): Toxic

inhibition [3]: inactive
Structure (SMILES): COc1oc(=O)c2cc(NC(=O)C(F)(F)C(F)(F)F)ccc2c1Cl

inhibition [3]: inactive
Structure (SMILES): COc1oc(=O)c2cc(NC(=O)CCCC(=O)O)ccc2c1Cl

inhibition [7]: inactive
inhibition [3]: inactive
Structure (SMILES): CC(C)C[C@H](NC(=O)[C@H](Cc1ccccc1)NC(=O)c1cnccn1)B(O)O

half-life [10]: 3.5 h
Structure (SMILES): COc1oc(=O)c2cc(N)ccc2c1Cl

half-life [10]: 3.5 h
inhibition [3]: > 50%
Structure (SMILES): CCOc1oc(=O)c2cc(N)ccc2c1Cl

inhibition [3]: inactive
Structure (SMILES): COc1oc(=O)c2cc(NCc3ccccc3)ccc2c1Cl
Activity (HEK293 [6]): Non-toxic

half-life [2]: < 0.333 h
inhibition [3]: inactive
Structure (SMILES): CCOc1oc(=O)c2cc([N+](=O)[O-])ccc2c1Cl

inhibition [7]: inactive
IC50 (Gamma-secretase): 10 µM
inhibition [3]: > 50%
Structure (SMILES): CC(C)C[C@H](NC(=O)[C@H](Cc1ccccc1)NC(=O)c1ccccc1)B1O[C@H]2C[C@H]3C[C@H](C3(C)C)[C@@]2(C)O1

inhibition [4]: > 50%
inhibition [9]: inactive
Structure (SMILES): COc1oc(=O)c2cc(NCc3ccc4ccccc4c3)ccc2c1Cl
Activity (HEK293 [5]): Non-toxic

IC50 (Gamma-secretase): 10 µM
Structure (SMILES): CCNc1ccc2c(Cl)c(OC)oc(=O)c2c1

inhibition [3]: > 50%
Structure (SMILES): COc1oc(=O)c2cc(NCc3cccc4ccccc34)ccc2c1Cl
Activity (HEK293 [6]): Non-toxic

Structure (SMILES): CCC(C)Oc1oc(=O)c2cc(N)ccc2c1Cl (centres undefined)
Activity (HEK293 [6]): Toxic
Activity (HEK293 [11]): Non-toxic

inhibition [4]: > 50%
Structure (SMILES): CCCCC(CC)CNc1ccc2c(Cl)c(OC)oc(=O)c2c1 (centres undefined)
Activity (HEK293 [5]): Toxic

inhibition [7]: inactive
inhibition [3]: inactive
Structure (SMILES): CC(C)C[C@@H](NC(=O)[C@H](Cc1ccccc1)NC(=O)c1cnccn1)B(O)O

inhibition [3]: inactive
Structure (SMILES): COc1oc(=O)c2cc(NC(=O)OCC(Cl)(Cl)Cl)ccc2c1Cl

inhibition [4]: > 50%
IC50 (Gamma-secretase): 10 µM
inhibition [3]: > 50%
Structure (SMILES): COc1oc(=O)c2cc(NCc3ccc([N+](=O)[O-])cc3)ccc2c1Cl
Activity (HEK293 [5]): Non-toxic

Structure (SMILES): COc1oc(=O)c2cc(Nc3ccccc3)ccc2c1Cl
Activity (HEK293 [6]): Toxic

Structure (SMILES): CCCCOc1oc(=O)c2cc(N)ccc2c1Cl
Activity (HEK293 [6]): Toxic
Activity (HEK293 [11]): Non-toxic

inhibition [7]: inactive
inhibition [3]: > 50%
Structure (SMILES): CC(C)C[C@@H](NC(=O)[C@H](Cc1ccccc1)NC(=O)c1ccccc1)B(O)O

inhibition [3]: inactive
Structure (SMILES): COc1cc2ccc(N)cc2c(=O)o1

half-life [2]: < 0.333 h
inhibition [3]: inactive
Structure (SMILES): CCCCOc1oc(=O)c2cc([N+](=O)[O-])ccc2c1Cl
